The record followed here is patent US20090291088A1, “THERAPEUTIC COMBINATIONS OF ANTI-IGF-1R ANTIBODIES AND OTHER COMPOUNDS” (Biogen Idec MA Inc., priority 2008, published 2009).

Experiment [1] has as its system NSCLC, pancreatic and colon cancer cell lines. The experiment is described as follows: Cell viability, M13-C06 and PI-103 alone or combined. The class given is cell-based. The settings on record: PI-103, colon cancer cell lines. As to the method:
Cells were plated at 5000 cells/well in 96-well tissue culture plates in cell culture medium containing 10% fetal bovine serum, then treated with M13-C06 or PI-103 (American Custom Chemicals Corp. cat# 371935-74-9) as single agents or in combination at 1:3 serial dilutions with a starting concentration of 200 nM and 10 microM for M13-C06 and PI-103 respectively. The cell viability was determined three or five days later by measuring ATP levels with CELL TITER GLO™ reagent from Promega.

The test system of experiment [2] is MiaPaCa2 pancreatic carcinoma cells. Description: MiaPaCa2 pancreatic carcinoma xenograft. To be noted: gemcitabine alone, 20 mg/kg, Q4D×3. The class given is in vivo, mouse. The text has this: Female SCID mice were innoculated in the right flank with 2×10^6 MiaPaCa2 pancreatic carcinoma cells in 50% Matrigel (BD Biosciences)/PBS.

The structures appear in SMILES notation.

Consider `Oc1cccc(-c2nc(N3CCOCC3)c3oc4ncccc4c3n2)c1` [PI-103, 3-[4-(4-morpholinyl)pyrido[3′,2′:4,5]furo[3,2-d]pyrimidin-2-yl]-phenol, reference compound], for which the cell growth result in experiment [1] is given as “None of the colon cancer cell lines appeared to be sensitive to PI-103 inhibition”.

Regarding `Nc1ccn([C@@H]2O[C@H](CO)[C@@H](O)C2(F)F)c(=O)n1` [gemcitabine], in experiment [2], the tumor growth entry is on record as “inhibited tumor growth”.
